The values below come from patent US20260184712A1, “Heterocyclic Compounds as ENT Inhibitors and Compounds for Use in the Treatment of Cancers” (iTeos Belgium SA, priority 2022, published 2026).

Molecules are shown by their SMILES.

In general, IC50 refers to the concentration needed to halve the response being measured.

The target of the assay is T1, human ENT1 (Homo sapiens, UniProt Q99808).
T1 construct: JAR cells expressing ENT1 were purchased from ATCC; host or cells: JAR cells
T1 sequence (Q99808 1-456): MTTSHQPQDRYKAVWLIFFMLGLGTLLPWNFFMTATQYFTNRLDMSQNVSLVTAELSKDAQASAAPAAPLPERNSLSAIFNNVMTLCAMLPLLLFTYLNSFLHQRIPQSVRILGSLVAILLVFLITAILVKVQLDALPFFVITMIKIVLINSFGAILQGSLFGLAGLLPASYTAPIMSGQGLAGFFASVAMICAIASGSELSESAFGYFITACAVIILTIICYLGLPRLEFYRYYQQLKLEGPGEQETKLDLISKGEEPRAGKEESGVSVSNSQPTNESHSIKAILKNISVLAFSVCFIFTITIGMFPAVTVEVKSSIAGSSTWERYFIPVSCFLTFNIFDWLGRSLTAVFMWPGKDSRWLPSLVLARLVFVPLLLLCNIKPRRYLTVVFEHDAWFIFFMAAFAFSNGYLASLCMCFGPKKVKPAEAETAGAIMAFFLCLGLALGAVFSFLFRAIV
Description: ENT1 binding assay (competition with Sahenta-DY647 on JAR cells). The conditions noted are these: competition with SAHENTA-DY647 binding; IC50 categorized; read-out: Binding Assay IC50. The method in brief: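 Fluorescent-tracer displacement: compound incubated with JAR cells 30 min, 4 °C, before Sahenta-DY647 (100 nM) for another 30 min, 4 °C, in Hepes-buffered HBSS with 0.1% BSA. Bound tracer read at 670 nm after washes; IC50 from four-parameter fit, reported as mean of pIC50 values.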
Regarding `COc1ncc(CNc2nc3c(OCc4ccc(C#N)cc4)ncnc3n2[C@@H]2O[C@H](C)[C@@H](O)[C@H]2O)cn1` [Compound 72], the IC50 is 1 to 20 nM.

In the case of `C[C@H]1O[C@@H](n2cnc3c(NCc4cccc(C(F)F)c4)ncnc32)[C@H](O)[C@@H]1O` [Compound 318], the IC50 is greater than 500 nM.

Consider `C[C@H]1O[C@@H](n2c(NCCCS(C)(=O)=O)nc3c(OCc4ccc(OC(F)F)cc4)ncnc32)[C@H](O)[C@@H]1O` [Compound 62], for which the IC50 is 1 to 20 nM.

As to `Cc1cc(C)c(COc2ncnc3c2ncn3[C@@H]2O[C@H](C)[C@@H](O)[C@H]2O)c(C)c1` [Compound 340], the IC50 was greater than 500 nM.

As for `C[C@H]1O[C@@H](n2cnc3c(OCc4ccc([N+](=O)[O-])nc4)ncnc32)[C@H](O)[C@@H]1O` [Compound 205], the IC50 lay in the range of 20 to 500 nM.

With `C[C@H]1O[C@@H](n2cnc3c(NCc4cccc(-n5cccn5)c4)ncnc32)[C@H](O)[C@@H]1O` [Compound 352], the IC50 is greater than 500 nM.

Take `O=[N+]([O-])c1ccc(COc2ncnc3c2ncn3[C@@H]2O[C@H](CCO)[C@@H](O)[C@H]2O)cc1` [Compound 229]: the IC50 was greater than 500 nM.

Take `Cc1nc2ccc(COc3ncnc4c3ncn4[C@@H]3O[C@H](C)[C@@H](O)[C@H]3O)cc2o1` [Compound 338]: the IC50 was greater than 500 nM.

`C[C@H]1O[C@@H](n2c(NC3CCCC3)nc3c(OCc4ccc(C(F)(F)F)nc4)ncnc32)[C@H](O)[C@@H]1O` [Compound 93]: the IC50 lay within 20 to 500 nM.

Consider `Cc1cc(CSc2ncnc3c2ncn3[C@@H]2O[C@H](C)[C@@H](O)[C@H]2O)cc(C)c1F` [Compound 272], for which the IC50 is greater than 500 nM.

Consider `C[C@H]1O[C@@H](n2c(N[C@H]3CC[C@](C)(O)CC3)nc3c(OCc4ccc(C(F)(F)F)cc4)ncnc32)[C@H](O)[C@@H]1O` [Compound 125], for which the IC50 is 1 to 20 nM.

Take `C[C@H]1O[C@@H](n2cnc3c(COCc4ccccc4)ncnc32)[C@H](O)[C@@H]1O` [Compound 399]: the IC50 is greater than 500 nM.

With `C[C@H]1O[C@@H](n2c(N[C@H]3CC[C@H](O)CC3)nc3c(OCc4ccc([N+](=O)[O-])cc4)ncnc32)[C@H](O)[C@@H]1O` [Compound 57], the IC50 was less than 1 nM.

Turning to `Cc1cc(CSc2ncnc3c2ncn3[C@@H]2O[C@H](C)[C@@H](O)[C@H]2O)no1` [Compound 348], the IC50 is greater than 500 nM.

Consider `Cc1noc(CSc2ncnc3c2ncn3[C@@H]2O[C@H](C)[C@@H](O)[C@H]2O)n1` [Compound 397], for which the IC50 is greater than 500 nM.

`CC(C)(O)[C@H]1O[C@@H](n2cnc3c(SCc4ccc(OC(F)(F)F)cc4)ncnc32)[C@H](O)[C@@H]1O` [Compound 262]: the concentration for half-maximal inhibition (IC50) was greater than 500 nM.

Regarding `Cc1ccc(CNc2ncnc3c2ncn3[C@@H]2O[C@H](C)[C@@H](O)[C@H]2O)cc1C` [Compound 320], the IC50 is greater than 500 nM.

For `C[C@H]1O[C@@H](n2cnc3c(COc4ccc(OCF)cc4)ncnc32)[C@H](O)[C@@H]1O` [Compound 296], the IC50 was greater than 500 nM.

Take `C[C@H]1O[C@@H](n2cnc3c(NCc4ccc(-c5ncon5)cc4)ncnc32)[C@H](O)[C@@H]1O` [Compound 255]: the 50% inhibitory concentration (IC50) is greater than 500 nM.

Turning to `O=[N+]([O-])c1ccc(COc2ncnc3c2ncn3[C@@H]2O[C@H](CCCO)[C@@H](O)[C@H]2O)cc1` [Compound 218], the IC50 lay within 20 to 500 nM.

Turning to `C[C@H]1O[C@@H](n2cnc3c(SCc4ccc(S(=O)(=O)N5CCCC5)cc4)ncnc32)[C@H](O)[C@@H]1O` [Compound 391], the IC50 is greater than 500 nM.

As for `C[C@H]1O[C@@H](n2cnc3c(OCCc4cnc(OCF)nc4)ncnc32)[C@H](O)[C@@H]1O` [Compound 356], the half-maximal inhibitory concentration (IC50) was greater than 500 nM.

In the case of `C[C@H]1O[C@@H](n2cnc3c(OCc4ccc(-c5ccncc5)cc4)ncnc32)[C@H](O)[C@@H]1O` [Compound 364], the IC50 is greater than 500 nM.

For `C[C@H]1O[C@@H](n2cnc3c(OCCc4ccc(CF)cc4)ncnc32)[C@H](O)[C@@H]1O` [Compound 294], the IC50 was greater than 500 nM.

On to `C[C@H]1O[C@@H](n2c(N[C@H]3C[C@](C)(O)C3)nc3c(OCc4ccc(C#N)cc4)ncnc32)[C@H](O)[C@@H]1O` [Compound 120], for which the 50% inhibitory concentration (IC50) was less than 1 nM.

In the case of `C[C@H]1O[C@@H](n2cc(C(F)(F)F)c3c(SCc4ccc([N+](=O)[O-])cc4)ncnc32)[C@H](O)[C@@H]1O` [Compound 163], the IC50 was in the range of 20 to 500 nM.

With `CC1OC(n2c(NC3CC(C)(O)C3)nc3c(OCc4ccc([N+](=O)[O-])cc4)ncnc32)C(O)C1O` (single isomer, unassigned) [Compound 133], the 50% inhibitory concentration (IC50) fell in the range of 1 to 20 nM.

Consider `CNS(=O)(=O)c1ccc(CSc2ncnc3c2ncn3[C@@H]2O[C@H](C)[C@@H](O)[C@H]2O)cc1` [Compound 297], for which the IC50 was greater than 500 nM.

`C[C@H]1O[C@@H](n2cnc3c(OCc4ccccc4-n4cccn4)ncnc32)[C@H](O)[C@@H]1O` [Compound 358]: the IC50 was greater than 500 nM.

Turning to `C[C@H]1O[C@@H](n2cnc3c(N(C)CCc4ccc([N+](=O)[O-])cc4)ncnc32)[C@H](O)[C@@H]1O` [Compound 324], the IC50 was greater than 500 nM.

As to `Cc1cn(C2OC(C)C(O)C2O)c2ncnc(SCc3ccc([N+](=O)[O-])cc3)c12` (single isomer, unassigned) [Compound 286], the half-inhibitory concentration (IC50) was greater than 500 nM.

In the case of `C[C@H]1O[C@@H](n2c(N[C@H]3CCC(F)(F)C3)nc3c(OCc4ccc([N+](=O)[O-])cc4)ncnc32)[C@H](O)[C@@H]1O` [Compound 84], the IC50 was less than 1 nM.

Take `C[C@H]1O[C@@H](n2c(NCCCS(C)(=O)=O)nc3c(OCc4ccc(C#N)cc4)ncnc32)[C@H](O)[C@@H]1O` [Compound 61]: the IC50 fell in the range of 20 to 500 nM.

`C[C@H]1O[C@@H](n2c(O)nc3c(OCc4ccc([N+](=O)[O-])cc4)ncnc32)[C@H](O)[C@@H]1O` [Compound 247]: the IC50 is greater than 500 nM.

Regarding `C[C@H]1O[C@@H](n2c(NC3CCS(=O)(=O)CC3)nc3c(N4CCc5ccccc5C4)ncnc32)[C@H](O)[C@@H]1O` [Compound 181], the IC50 fell in the range of 20 to 500 nM.

`C[C@H]1O[C@@H](n2cnc3c(OCc4ccc5c(c4)OCC5)ncnc32)[C@H](O)[C@@H]1O` [Compound 313]: the IC50 was greater than 500 nM.

With `C[C@H]1O[C@@H](n2cnc3c(-n4cc(-c5ccc([N+](=O)[O-])cc5)nn4)ncnc32)[C@H](O)[C@@H]1O` [Compound 416], the 50% inhibitory concentration (IC50) is greater than 500 nM.

With `C[C@H]1O[C@@H](n2cnc3c(SCc4ccc(C(=N)N)cc4)ncnc32)[C@H](O)[C@@H]1O` [Compound 410], the IC50 is greater than 500 nM.

For the molecule `C[C@H]1O[C@@H](n2cnc3c(OCc4ncc(F)cc4F)ncnc32)[C@H](O)[C@@H]1O` [Compound 362], the IC50 is greater than 500 nM.

For the molecule `C[C@H]1O[C@@H](n2cnc3c(NCc4ccc(N5CCOCC5)cc4)ncnc32)[C@H](O)[C@@H]1O` [Compound 385], the IC50 was greater than 500 nM.

Regarding `C[C@H]1O[C@@H](n2cnc3c(OCCc4cnc(CF)nc4)ncnc32)[C@H](O)[C@@H]1O` [Compound 403], the concentration for half-maximal inhibition (IC50) is greater than 500 nM.

With `C[C@H]1O[C@@H](n2cnc3c(OCCc4ccc(C#N)nc4)ncnc32)[C@H](O)[C@@H]1O` [Compound 319], the IC50 was greater than 500 nM.

On to `C[C@H]1O[C@@H](n2cnc3c(C(=O)NCc4ccc(C#N)cc4)ncnc32)[C@H](O)[C@@H]1O` [Compound 361], for which the IC50 was greater than 500 nM.

In the case of `C[C@H]1O[C@@H](n2cnc3c(SCc4cscn4)ncnc32)[C@H](O)[C@@H]1O` [Compound 300], the IC50 was greater than 500 nM.

On to `CC(NC(=O)c1ncnc2c1ncn2[C@@H]1O[C@H](C)[C@@H](O)[C@H]1O)c1ccc([N+](=O)[O-])cc1` (stereo partly shown) [Compound 305], for which the IC50 was greater than 500 nM.

In the case of `C[C@H]1O[C@@H](n2cnc3c(OCCc4cccc([N+](=O)[O-])c4)ncnc32)[C@H](O)[C@@H]1O` [Compound 275], the IC50 was greater than 500 nM.

For `C[C@H]1O[C@@H](n2c(-c3cnn(C)c3)nc3c(OCc4ccc([N+](=O)[O-])cc4)ncnc32)[C@H](O)[C@@H]1O` [Compound 13], the concentration for half-maximal inhibition (IC50) is 20 to 500 nM.

On to `CC(CCO)Nc1nc2c(OCc3ccc(Cl)cc3)ncnc2n1[C@@H]1O[C@H](C)[C@@H](O)[C@H]1O` (stereo partly shown) [Compound 97], for which the IC50 fell in the range of 1 to 20 nM.

As to `C[C@H]1O[C@@H](n2cnc3c(SCc4cccnn4)ncnc32)[C@H](O)[C@@H]1O` [Compound 393], the concentration for half-maximal inhibition (IC50) was greater than 500 nM.

On to `C[C@H]1O[C@@H](n2cnc3c(SCc4ccc(C#N)cn4)ncnc32)[C@H](O)[C@@H]1O` [Compound 257], for which the IC50 is greater than 500 nM.

Regarding `C[C@H]1O[C@@H](n2c(NCC3CCC(F)(F)C3)nc3c(OCc4ccc(C#N)cc4)ncnc32)[C@H](O)[C@@H]1O` (stereo partly shown) [Compound 105], the IC50 lay in the range of 1 to 20 nM.

For the molecule `C[C@H]1O[C@@H](n2cnc3c(NCc4cccc(OC(F)(F)F)c4)ncnc32)[C@H](O)[C@@H]1O` [Compound 335], the IC50 is greater than 500 nM.

Consider `C[C@H]1O[C@@H](n2cnc3c(C(=O)N(C)Cc4ccc([N+](=O)[O-])cc4)ncnc32)[C@H](O)[C@@H]1O` [Compound 406], for which the half-inhibitory concentration (IC50) was greater than 500 nM.

`C[C@H]1O[C@@H](n2cnc3c(SCc4ccccc4S(N)(=O)=O)ncnc32)[C@H](O)[C@@H]1O` [Compound 242]: the IC50 is greater than 500 nM.

Turning to `C[C@H]1O[C@@H](n2cnc3c(SCc4cccc(OC5CC5)c4)ncnc32)[C@H](O)[C@@H]1O` [Compound 306], the concentration for half-maximal inhibition (IC50) is greater than 500 nM.
